The subject of data set [1] is Trypanosoma cruzi. The data set is described as follows: Antitrypanosomal activity against Trypanosoma cruzi clone Dm28c metacyclic trypomastigotes infected in mouse assessed as decrease in heart parasitemia at 220 mg/kg/day, ip measured after 20 days. The class given is functional, organism-based.
In data set [2] the test system is Mus musculus. The data set is described as follows: Toxicity in BALB/c mouse at 220 mg/kg/day, ip measured after 20 days. The class given is organism-based. On the set-up: route intraperitoneal. Conditions: in vivo, 480 h.
Data set [3] relates to Trypanosoma cruzi. The experiment in a line: Antitrypanosomal activity against Trypanosoma cruzi clone Dm28c metacyclic trypomastigotes infected in mouse assessed as decrease in heart parasitemia at 30 mg/kg/day, ip measured after 20 days. The class given is functional, organism-based.
Data set [4] relates to Trypanosoma cruzi. The experiment in a line: Antitrypanosomal activity against Trypanosoma cruzi clone Dm28c metacyclic trypomastigotes infected in mouse assessed as decrease in heart parasite burden at 30 mg/kg/day, ip measured after 20 days. The class given is functional, organism-based.
Data set [5] concerns Trypanosoma cruzi. The experiment in a line: Antitrypanosomal activity against Trypanosoma cruzi clone Dm28c metacyclic trypomastigotes infected in mouse assessed as decrease in heart parasite burden at 220 mg/kg/day, ip measured after 20 days. The class given is functional, organism-based.
Data set [6] has as its system Trypanosoma cruzi. The experiment in a line: Antitrypanosomal activity against Trypanosoma cruzi clone Dm28c metacyclic trypomastigotes infected in BALB/c mouse assessed as increase in survival rate at 10 mg/kg/day, ip measured after 20 days. The class given is functional. Conditions: 480 h, route intraperitoneal.
The test system of data set [7] is Trypanosoma cruzi. The data set is described as follows: Antitrypanosomal activity against Trypanosoma cruzi clone Dm28c metacyclic trypomastigotes infected in BALB/c mouse assessed as increase in survival rate at 2.5 mg/kg/day, ip measured after 20 days. The class given is functional, organism-based.
The test system of data set [8] is Trypanosoma cruzi. The experiment in a line: Antitrypanosomal activity against Trypanosoma cruzi clone Dm28c metacyclic trypomastigotes infected in BALB/c mouse assessed as increase in survival rate at 30 mg/kg/day, ip measured after 20 days. The class given is functional, organism-based.
For data set [9], the system named is Trypanosoma cruzi. The data set is described as follows: Antitrypanosomal activity against Trypanosoma cruzi clone Dm28c metacyclic trypomastigotes infected in BALB/c mouse assessed as increase in survival rate at 220 mg/kg/day, ip measured after 20 days (reference value: 25%). The class given is functional.

Activity and survival data for one molecule are collected here from ChEMBL document CHEMBL1255344, “Buthionine sulfoximine has anti-Trypanosoma cruzi activity in a murine model of acute Chagas' disease and enhances the efficacy of nifurtimox” (Antimicrob Agents Chemother, 2008).

Calls of active or inactive are those of the source. The calls are words filed in the database; no cut-off is given here.

For `CCCCS(=N)(=O)CCC(N)C(=O)O` (stereo not given) [BUTHIONINE SULFOXIMINE], the outcome in [1], in data set [5] and in data set [9] was Active. Also, in [2], the Activity entry is given as “Non-toxic”. Moreover, the result in [3], in data set [4], in data set [7] and in [8] was inactive. In data set [6], the survival at 10 mg/kg/day was not above 100%. The survival at 220 mg/kg/day in data set [9] (480 h, route intraperitoneal) was not above 80%.
